Data as given in patent US20200171030A1, “DUAL INHIBITORS OF ALK5 AND P38A MAP KINASE” (INTEGRAL BIOSCIENCES PRIVATE LIMITED, priority 2018, published 2020).
Where a name gives a salt, the structure may show the parent alone.

Tests used:
MIA PaCa-2 = test: Cell viability assay (resazurin, 96 hr) in MIA PaCa-2; assay type: cell-based; settings: Homo sapiens; MIA PaCa-2 pancreatic cell line, 96 hr exposure; read-out: MiaPaCa-2_Cell Viability_IC50
Method: (§1) Cell Viability Assay in MIA PaCa-2 and Panc-1
(§2) MIA PaCa-2 (ATCC® CRL-1420™) and Panc-1 (CRL-1469™), both pancreatic cell lines were seeded in their respective medium (DMEM, Cat #10569044 with 10% FBS, Cat #16000044; Gibco for Panc-1 and an additional 2.5% Horse Serum, Cat #16050122; Gibco for MIA PaCa-2) at a cell count of 3000 cells per 100 μl per well in a 96 well edge plate (167425; ThermoFisher). Cells were allowed to grow at 37° C. for 24 hr in 5% CO2 (culture conditions) in a Nuaire incubator (humidified). Serially diluted compounds (100 μl) were added to the culture plate 24 hr later and the cultures (MIA PaCa-2 and Panc-1) were further incubated in culture conditions for 96 hr. Experiment was terminated at the completion of 96 hr exposure to the drug by replacing the medium with 100 μl of 1 mM of resazurin (R7017; Sigma) prepared in culture medium and the plates were further incubated in culture conditions for 4 hr. Fluorescence was then measured using a multimodal plate reader (Biotek Synergy Neo) at an excitation wavelength of 535 nm and emission wavelength of 590 nm to obtain relative fluorescence units. Data analysis was done by subtracting the background fluorescence (only medium blank) value from each reading and then normalizing with the vehicle control (DMSO treated cells) to obtain percent survival/proliferation. Percent survival at different doses was used to calculate IC50 by fitting the curve to the “four-parameter variable slope logistic model” using Prism Graph Pad.

Panc-1 = test: Cell viability assay (resazurin, 96 hr) in Panc-1; assay type: cell-based; settings: Homo sapiens; Panc-1 pancreatic cell line, 96 hr exposure; read-out: Panc-1_Cell Viability_IC50
Method: as §1, §2

TGFBR1 (ALK5) = molecular target: T1, TGFBR1 (ALK5) (Homo sapiens, UniProt P36897); test: ALK5 kinase assay (LanthaScreen Terbium labeled TR-FRET); assay type: biochemical; settings: Table 4; read-out: ALK5 IC50
T1 sequence (P36897 34-503): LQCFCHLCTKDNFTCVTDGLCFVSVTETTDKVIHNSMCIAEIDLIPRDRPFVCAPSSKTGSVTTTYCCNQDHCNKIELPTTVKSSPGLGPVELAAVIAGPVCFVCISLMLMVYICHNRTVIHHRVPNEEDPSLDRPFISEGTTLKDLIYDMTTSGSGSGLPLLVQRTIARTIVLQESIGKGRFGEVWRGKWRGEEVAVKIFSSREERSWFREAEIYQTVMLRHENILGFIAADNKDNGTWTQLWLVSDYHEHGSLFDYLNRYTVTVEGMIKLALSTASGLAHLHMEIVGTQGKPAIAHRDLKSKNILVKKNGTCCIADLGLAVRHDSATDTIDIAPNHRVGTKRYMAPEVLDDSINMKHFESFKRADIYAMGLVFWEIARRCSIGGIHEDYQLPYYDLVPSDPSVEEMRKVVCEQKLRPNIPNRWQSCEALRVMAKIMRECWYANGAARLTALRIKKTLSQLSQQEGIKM
Method: ALK5 Kinase Assay for IC50 Determination:
IC50 values of compounds against TGFβ kinase was determined by LanthaScreen™ Terbium Labeled TR-FRET assay. Kinase assays were performed in IX kinase buffer (# PV6135, Invitrogen, Life Technologies Grand Island, N.Y.) where total reaction volume was 10 μL in low-volume 384-well plates (#4511,Corning). Serially diluted compounds (3-fold) were incubated with TGFβ kinase (6 nM) for 10 min, following which a mixture of ATP (10 μM) (# A1852, Sigma, St-Louis, Mo.) and fluorescent-PolyGT substrate (200 nM) (# PV3610, Invitrogen, Life Technologies Grand Island, N.Y.) was added and incubated in dark at room temperature for 1 h. After 1 h, 10 μL stop solution containing Terbium labeled antibody (4 nM) (# PV3529, Invitrogen, Life Technologies Grand Island, N.Y.) and EDTA (# E5134, Sigma, St-Louis, Mo.) (20 mM) in TR-FRET dilution buffer (# PV3574, Invitrogen, Life Technologies Grand Island, N.Y.) was added. Readings were taken in a Synergy Neo Plate reader (BioTek, Winooski) at single excitation of 340 nm and Dual emission at 495 nm and 520 nm respectively.
The % activity of test samples was calculated as (Sample−Min)×100/(Max−Min). [Max: DMSO control, complete reaction with enzyme with DMSO and Min: No enzyme with DMSO]. Percent inhibition (100-% activity) was fitted to the “four-parameter logistic model” in XLfit for determination of IC50 values.

MAPK14/p38α kinase = molecular target: T2, MAPK14/p38α kinase (Homo sapiens, UniProt Q16539); test: MAPK14/p38α kinase assay (LanthaScreen TR-FRET); assay type: biochemical; settings: 100 nM concentration of compound; Table 4; read-out: Enzyme Activity MAPK14 (p38alpha) % Inh at 100 nM
T2 construct: purchased ThermoFisher PV3304
Method: MAPK14/p38α Kinase Assay for IC50 Determination:
IC50 values of compounds against MAPK14/P38α kinase were determined by Lanthascreen based TR-FRET assay. Kinase reactions were performed in a 10 μL volume in low-volume 384-well plates. The concentration of substrate was maintained at 400 nM in the assay, and the kinase reaction buffer (1×; Cat # PV3189, ThermoFisher) consisted of 50 mM HEPES pH 7.5, 0.01% BRIJ-35, 10 mM MgCl2, and 1 mM EGTA. Serially diluted compounds (3-fold) in DMSO (0.5% in final reaction) were incubated with cocktail of MAPK14/p38α kinase (20 ng/ml; Cat # PV3304, ThermoFisher), Substrate GFP-ATF2 (19-96), (0.4 μM; Cat # PV4445, ThermoFisher), ATP (90 μM; Cat # PV3227, ThermoFisher) and buffer. Kinase reactions were allowed to proceed for 1 hour at room temperature before EDTA (10 mM; Cat # P2825, ThermoFisher) and LanthaScreen™ Tb-antipATF2 (pThr71) Antibody (2 nM; Cat # PV4451, ThermoFisher) in TR-FRET dilution buffer (IX; Cat # PV3574, ThermoFisher) were added. The plate was allowed to incubate at room temperature for 30 minutes before being read on a BMG Pherastar plate reader using the LanthaScreen™ filter block for LanthaScreen™ TR-FRET.
The resulting TR-FRET emission ratio was plotted against the concentration of inhibitor, and the data was fit to a sigmoidal dose-response curve with a variable slope. The IC50 for the inhibitor was calculated from the curve.

T2 sequence (Q16539 whole entry): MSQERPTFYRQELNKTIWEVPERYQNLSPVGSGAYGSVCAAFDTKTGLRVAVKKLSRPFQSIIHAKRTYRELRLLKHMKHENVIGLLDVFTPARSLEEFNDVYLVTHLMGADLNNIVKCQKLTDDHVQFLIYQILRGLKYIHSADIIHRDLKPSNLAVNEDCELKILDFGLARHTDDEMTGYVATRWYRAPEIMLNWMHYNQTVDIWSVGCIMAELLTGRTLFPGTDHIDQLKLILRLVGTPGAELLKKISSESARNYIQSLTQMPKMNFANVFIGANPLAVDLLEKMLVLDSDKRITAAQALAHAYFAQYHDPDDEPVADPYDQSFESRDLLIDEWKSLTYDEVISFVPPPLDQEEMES

CC(C)c1ccc(-c2ccc(F)cc2)nc1Nc1ccnc2[nH]cc(C(=O)C(N)=O)c12 [Compound No. 27, 2-(4-(6-(4-fluorophenyl)-3-isopropylpyridin-2-ylamino)-1H-pyrrolo [2,3-b]pyridin-3-yl)-2-oxoacetamide hydrochloride]
IC50 (MIA PaCa-2): > 30 µM
IC50 (Panc-1): > 30 µM
IC50 (TGFBR1 (ALK5)): > 5 µM
inhibition at 0.1 µM (MAPK14/p38α kinase): 0%

CC(C)c1cnc(-c2ccc(F)cc2)nc1Nc1cccc2[nH]cc(C(=O)C(N)=O)c12 [Compound No. 28, 2-(4-(2-(4-fluorophenyl)-5-isopropylpyrimidin-4-ylamino)-1H-indol-3-yl)-2-oxoacetamide hydrochloride]
IC50 (MIA PaCa-2): > 30 µM
IC50 (Panc-1): > 30 µM
IC50 (TGFBR1 (ALK5)): > 5 µM
inhibition at 0.1 µM (MAPK14/p38α kinase): 21%
